The test system of data set [1] is wild-type mice. As to the kind of experiment: PCP-induced hyperlocomotion in wild-type mice. The note with it: 2 mg/kg i.p., 30 min before 6 mg/kg PCP i.p. The format is in vivo, mouse.
In data set [2] the test system is β-arrestin-2 knockout mice. As to the kind of experiment: PCP-induced hyperlocomotion in β-arrestin-2 knockout mice. The format is in vivo, mouse. The note with it: 2 mg/kg i.p., 30 min before 6 mg/kg PCP i.p.
For a further data set, the target named is D1 receptor (Homo sapiens, UniProt P21728). As to the kind of experiment: PDSP radioligand binding assay, D1. The note with it: Table S1.
Sequence of D1 receptor (P21728 whole entry): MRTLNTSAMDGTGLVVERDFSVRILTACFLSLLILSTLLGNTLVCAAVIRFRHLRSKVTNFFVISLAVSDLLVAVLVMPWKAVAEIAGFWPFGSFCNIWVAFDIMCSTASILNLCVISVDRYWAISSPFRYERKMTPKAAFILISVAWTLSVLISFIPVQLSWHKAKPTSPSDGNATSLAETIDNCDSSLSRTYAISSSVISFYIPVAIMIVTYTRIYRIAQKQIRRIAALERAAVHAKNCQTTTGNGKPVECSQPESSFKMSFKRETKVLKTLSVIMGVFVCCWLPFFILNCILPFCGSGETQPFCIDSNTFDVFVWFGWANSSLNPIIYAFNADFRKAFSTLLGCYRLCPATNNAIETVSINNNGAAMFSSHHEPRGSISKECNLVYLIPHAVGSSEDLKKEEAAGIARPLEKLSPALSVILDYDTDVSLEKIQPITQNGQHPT
Another data set addresses D5 receptor (Homo sapiens, UniProt P21918). As to the kind of experiment: PDSP radioligand binding assay, D5. The note with it: Table S1.
For data set [3], the system named is wild-type mice. The note with it: cited from earlier work.
Data set [4] has as its system β-arrestin-2 knockout mice. The note with it: cited from earlier work.
For data set [5], the system named is wild-type mice. The note with it: cited from earlier work. This is another data set of the same source.
For data set [6], the target named is T1, D2L receptors (Homo sapiens, UniProt P14416). The data set is described as follows: D2R radioligand binding assay.
Target sequence in this assay (P14416 whole entry): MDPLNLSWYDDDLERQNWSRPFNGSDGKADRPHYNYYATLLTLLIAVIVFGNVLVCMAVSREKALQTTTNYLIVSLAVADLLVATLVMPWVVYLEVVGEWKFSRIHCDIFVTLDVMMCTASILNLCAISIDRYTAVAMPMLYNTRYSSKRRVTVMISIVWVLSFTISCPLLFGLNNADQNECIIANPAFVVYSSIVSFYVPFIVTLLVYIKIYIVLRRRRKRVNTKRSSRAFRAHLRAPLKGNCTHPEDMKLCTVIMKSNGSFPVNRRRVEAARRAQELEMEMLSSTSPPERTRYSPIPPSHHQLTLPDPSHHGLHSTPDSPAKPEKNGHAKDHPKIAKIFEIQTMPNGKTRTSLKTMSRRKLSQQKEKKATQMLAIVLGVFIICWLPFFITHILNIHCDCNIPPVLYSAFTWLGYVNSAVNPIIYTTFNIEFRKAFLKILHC
The target of data set [7] is T1, D2L receptors. As to the kind of experiment: cell-based. The format is cell-based.
Target sequence in this assay (P14416 whole entry, added parts left off): as the sequence (P14416 whole entry) above
Target sequence in this assay (P32121 whole entry partner): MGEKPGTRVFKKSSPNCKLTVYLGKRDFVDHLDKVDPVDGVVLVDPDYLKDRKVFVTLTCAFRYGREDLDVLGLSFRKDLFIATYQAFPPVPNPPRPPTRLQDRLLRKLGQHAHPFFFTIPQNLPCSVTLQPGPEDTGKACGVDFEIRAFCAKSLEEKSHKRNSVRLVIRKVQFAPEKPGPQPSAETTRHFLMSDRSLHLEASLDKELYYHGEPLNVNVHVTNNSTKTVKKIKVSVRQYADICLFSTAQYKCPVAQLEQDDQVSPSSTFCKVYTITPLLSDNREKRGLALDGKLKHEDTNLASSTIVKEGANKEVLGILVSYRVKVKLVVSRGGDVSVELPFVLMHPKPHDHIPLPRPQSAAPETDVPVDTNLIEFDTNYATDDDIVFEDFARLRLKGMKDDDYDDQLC
Another data set concerns the target D3 receptor (Homo sapiens, UniProt P35462). The data set is described as follows: PDSP radioligand binding assay, D3. The note with it: Table S1.
The next data set addresses T2, D4 receptor (Homo sapiens, UniProt P21917).
T2 sequence (P21917 1-419): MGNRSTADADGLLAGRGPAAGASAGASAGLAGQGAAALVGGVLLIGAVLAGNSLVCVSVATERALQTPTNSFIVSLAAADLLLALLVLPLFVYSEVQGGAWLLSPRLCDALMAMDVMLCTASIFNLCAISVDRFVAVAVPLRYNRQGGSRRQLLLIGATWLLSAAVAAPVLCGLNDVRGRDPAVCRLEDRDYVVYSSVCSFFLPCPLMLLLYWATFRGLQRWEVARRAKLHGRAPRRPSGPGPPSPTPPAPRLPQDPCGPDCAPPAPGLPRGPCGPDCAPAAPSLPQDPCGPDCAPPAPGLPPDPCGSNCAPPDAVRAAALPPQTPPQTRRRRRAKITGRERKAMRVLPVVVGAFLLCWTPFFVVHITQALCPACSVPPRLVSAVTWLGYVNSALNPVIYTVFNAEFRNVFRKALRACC
As to the kind of experiment: PDSP radioligand binding assay, D4. The note with it: Table S1.

The conditions of data set [8]: cited from earlier work.

Here are results for seven compounds from paper PMC3443605 (Journal of medicinal chemistry, 2012).

“Also recorded” adds a separate entry of the source.

Sequence of D5 receptor (P21918 whole entry): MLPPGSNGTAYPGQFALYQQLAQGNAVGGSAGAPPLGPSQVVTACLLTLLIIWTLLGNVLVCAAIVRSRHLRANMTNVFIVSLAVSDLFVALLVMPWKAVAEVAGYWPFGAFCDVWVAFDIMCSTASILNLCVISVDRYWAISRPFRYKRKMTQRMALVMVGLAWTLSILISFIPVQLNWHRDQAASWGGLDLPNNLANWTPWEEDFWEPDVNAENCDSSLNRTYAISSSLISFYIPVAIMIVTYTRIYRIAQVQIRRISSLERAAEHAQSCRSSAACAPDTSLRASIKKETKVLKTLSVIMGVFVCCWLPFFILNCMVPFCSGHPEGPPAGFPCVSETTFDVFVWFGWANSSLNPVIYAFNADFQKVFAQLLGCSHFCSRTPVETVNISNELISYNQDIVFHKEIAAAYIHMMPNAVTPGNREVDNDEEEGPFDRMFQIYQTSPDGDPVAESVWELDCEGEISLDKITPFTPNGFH
Sequence of D3 receptor (P35462 whole entry): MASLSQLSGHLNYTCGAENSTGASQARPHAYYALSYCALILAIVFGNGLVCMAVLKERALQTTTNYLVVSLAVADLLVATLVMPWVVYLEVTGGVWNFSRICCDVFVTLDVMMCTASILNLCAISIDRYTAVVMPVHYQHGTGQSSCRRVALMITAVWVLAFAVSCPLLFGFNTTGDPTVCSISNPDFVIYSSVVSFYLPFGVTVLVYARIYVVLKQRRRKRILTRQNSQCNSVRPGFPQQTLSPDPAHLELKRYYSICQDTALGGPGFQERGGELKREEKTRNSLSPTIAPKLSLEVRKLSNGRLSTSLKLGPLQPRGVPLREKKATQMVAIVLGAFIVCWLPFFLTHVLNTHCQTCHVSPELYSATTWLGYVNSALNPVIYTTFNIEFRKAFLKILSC

On to `O=C1CCc2ccc(OCCCCN3CCCN(c4cccc(Cl)c4Cl)CC3)cc2N1` [Compound 19], for which the “effect on PCP-induced hyperlocomotion, wild-type mice” value with wild-type mice [1] was “markedly inhibited”. Moreover, the “antipsychotic-like activity (PCP-induced hyperlocomotion), β-arrestin-2 knockout mice” value in data set [2] is on record as “neither compound affected; also recorded: completely abolished”. For the same compound, the “binding affinity to D1 receptor” value on D1 receptor is reported as “low affinities”. Besides, the “binding affinity to D5 receptor” value on D5 receptor was “low affinities”.
As for `O=C1CCc2ccc(OCCCCN3CCCN(c4cccc(Cl)c4Cl)CC3)nc2N1` [Compound 44], the “antipsychotic drug-like activities in wild-type mice” value in the data set with wild-type mice [3] is listed as “robust”. Further, the “antipsychotic drug-like activities in β-arrestin-2 knockout mice” value in [4] is recorded as “significantly attenuated or completely abolished”. Further, the “catalepsy in wild-type mice” value in the data set with wild-type mice [5] was “did not induce catalepsy”.
Turning to `O=C1CCc2ccc(OC[C@@H]3C[C@H]3CN3CCN(c4cccc(Cl)c4Cl)CC3)cc2N1` (relative stereo) [Compound 24, Trans-7-((2-((4-(2,3-dichlorophenyl)piperazin-1-yl)methyl)cyclopropyl)methoxy)-3,4-dihydroquinolin-2(1H)-one], affinity at D2L receptors [6] was put at a Ki of 0.235 µM. Further, the midpoint of the response at D2L receptors [7], the EC50, lay at 1.26 µM.
In the case of `Clc1cccc(C2CCN(CCCCOc3ccc4scnc4c3)CC2)c1Cl` [Compound 35, 5-(4-(4-(2,3-Dichlorophenyl)piperidin-1-yl)butoxy)benzo[d]thiazole], the “binding affinity to D2 receptor” value at D2L receptors [6] (Table S1) is listed as “high affinities”. Besides, the “effect on PCP-induced hyperlocomotion, wild-type mice” value in the data set with wild-type mice [1] was “significantly reduced”. In addition, in [2], the “antipsychotic-like activity (PCP-induced hyperlocomotion), β-arrestin-2 knockout mice” value is listed as “neither compound affected”. Also, on D1 receptor, the “binding affinity to D1 receptor” value is “low affinities”. For the same compound, the “binding affinity to D3 receptor” value on D3 receptor was “high affinities”. Also, on D4 receptor, the “binding affinity to D4 receptor” value is “high affinities”. Further, the “binding affinity to D5 receptor” value on D5 receptor is recorded as “low affinities”.
`O=C1CCc2ccc(OCCCCN3CCN(c4cccc(Cl)c4Cl)CC3)cc2N1` [Compound 1, aripiprazole]: in data set [8], the oral bioavailability result is “high”.
For the compound `CC(C)Oc1ccccc1N1CCN(CCCCOc2ccc3c(c2)NC(=O)CC3)CC1` [Compound 4, 7-(4-(4-(2-Isopropoxyphenyl)piperazin-1-yl)butoxy)-3,4-dihydroquinolin-2(1H)-one], the “potency at activating β-arrestin versus Gi signaling” value at D2L receptors [7] is recorded as “about 10 fold”.
In the case of `Clc1cccc(C2CCN(CCCOc3ccc4scnc4c3)CC2)c1Cl` [Compound 36], the “antipsychotic drug-like activities in wild-type mice” value in the data set on wild-type mice [3] is “robust”. Moreover, the “antipsychotic drug-like activities in β-arrestin-2 knockout mice” value in data set [4] is recorded as “significantly attenuated or completely abolished”. For the same compound, the “catalepsy in wild-type mice” value in the data set with wild-type mice [5] is on record as “did not induce catalepsy”.
